Test systems include NCI-H460; MOLT-4; SK-OV-3; SF-268; U-251; UACC-62; UACC-257; HOP-62; A549; OVCAR-4; NCI-H23; OVCAR-5; KM12; EKVX; UO-31; SN12C; NCI-H522; SF-295; HCT-116; HCC 2998.
Common to all, as to assay: inhibition of tumour cell growth, NCI panel, 48 h

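How tested: cells in 96-well plates exposed to compound for 48 hours at five concentrations. GI50: concentration for 50% inhibition of growth.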 The source made the active and inactive calls. No stated cut-off is given here; in the data, active = GI50 up to about 1.1 µM and inactive = higher.

8 molecules from ChEMBL document CHEMBL1201862, “PubChem BioAssay data set” (2004) can be followed below.

As for `O=C1C=CC2OC(c3ccccc3)C(O)C2O1` (stereo not given), the GI50 is 4.7 µM (inactive) in the test on NCI-H460; 1.43 µM (inactive) with MOLT-4; 13.8 µM (inactive) with SK-OV-3; 5.53 µM (inactive) in the test with SF-268; 10.7 µM (inactive) with U-251; 4.94 µM (inactive) with UACC-62. Also, the GI50 in the test on UACC-257 was 6.31 µM (inactive); in the test on HOP-62, 12 µM (inactive); with A549, 5.74 µM (inactive); in the test on OVCAR-4 it was 7.87 µM (inactive); in the test on NCI-H23 it was 3.07 µM (inactive); with OVCAR-5, 9.38 µM (inactive). The GI50 in the test on KM12 was 6.76 µM (inactive); in the test on EKVX, 4.91 µM (inactive); in the test with UO-31 it was 10.2 µM (inactive); in the test on SN12C, 7.03 µM (inactive); in the test on NCI-H522 it was 1.35 µM (inactive); in the test with SF-295 it was 7.71 µM (inactive). Moreover, the results for the GI50 with HCT-116 and in the test with HCC 2998 were 2.49 µM (inactive) and 2.47 µM (inactive), respectively.
For `CC(C)=CCc1c(O)ccc2ccc(=O)oc12` [OSTHENOL], the GI50 with NCI-H460 is > 73.5 µM (inactive); with MOLT-4 it was 26.9 µM (inactive); in the test on SK-OV-3 it was > 100 µM (inactive); with SF-268 it was 33.7 µM (inactive); with U-251, 21.9 µM (inactive); with UACC-62, 44.6 µM (inactive). Moreover, the GI50 was 33 µM (inactive) in the test with UACC-257; 5.83 µM (inactive) in the test with A549; 37.8 µM (inactive) in the test on OVCAR-4; 55.5 µM (inactive) in the test on NCI-H23; > 31.6 µM (inactive) with OVCAR-5; > 75.5 µM (inactive) in the test with KM12. Moreover, the GI50 with EKVX is 51.6 µM (inactive); with UO-31 it was 29.4 µM (inactive); in the test with SN12C, > 91.8 µM (inactive); in the test on NCI-H522 it was 48.2 µM (inactive); with SF-295 it was 45.6 µM (inactive); in the test with HCT-116, 57.4 µM (inactive). The GI50 in the test on HCC 2998 was 45.8 µM (inactive).
As to `Cn1ncc2c(=O)[nH]c(-c3ccccc3)nc21`, the GI50 in the test with MOLT-4, in the test on SK-OV-3, in the test on SF-268, with U-251, in the test with UACC-62 and with UACC-257 was > 100 µM (inactive) in each case. In addition, the GI50 with A549, with OVCAR-4, in the test with NCI-H23, in the test on OVCAR-5, with KM12 and with EKVX was > 100 µM (inactive) each time. Also, the GI50 in the test with UO-31, in the test with SN12C, in the test on NCI-H522, in the test with SF-295 and with HCC 2998 was > 100 µM (inactive) in each case.
On to `N/C(=N\O)N/N=C\c1ccccc1O`, for which the GI50 in the test on NCI-H460 was 3.29 µM (inactive); in the test with MOLT-4, 7.13 µM (inactive); with SK-OV-3, 31.3 µM (inactive); with SF-268, 12.4 µM (inactive); with U-251, 8.34 µM (inactive); in the test with UACC-62, 5.64 µM (inactive). Also, the GI50 was 16.2 µM (inactive) in the test with UACC-257; 11.2 µM (inactive) with HOP-62; 6.01 µM (inactive) in the test with A549; 4.06 µM (inactive) with OVCAR-4; 7.6 µM (inactive) in the test with NCI-H23; 37.5 µM (inactive) with OVCAR-5. Moreover, the GI50 in the test with KM12 is 5.02 µM (inactive); with EKVX, 11.2 µM (inactive); in the test with UO-31, 7.98 µM (inactive); with SN12C it was 11.6 µM (inactive); in the test with NCI-H522, 11.8 µM (inactive); in the test with SF-295 it was 4 µM (inactive). Further, the GI50 with HCT-116 is 4.85 µM (inactive); with HCC 2998, 3.24 µM (inactive).
As for `COC(=O)[C@@H](O)[C@](O)(CCC(C)C)C(=O)O[C@@H]1C(OC)=C[C@]23CCCN2CCc2cc4c(cc2[C@H]13)OCO4`, the GI50 with NCI-H460 was 0.325 µM (active); with MOLT-4 it was 0.32 µM (active); in the test with SK-OV-3, 1.17 µM (inactive); in the test with SF-268, 0.984 µM (active); in the test on U-251 it was 0.869 µM (active); in the test on UACC-62, 3.9 µM (inactive). Besides, the GI50 in the test with UACC-257 is 1.82 µM (inactive); in the test on HOP-62, 0.575 µM (active); in the test with A549 it was 0.951 µM (active); with OVCAR-4, 1.06 µM (active); in the test on NCI-H23, 1.55 µM (inactive); in the test on OVCAR-5, 3.24 µM (inactive). Moreover, the GI50 with KM12 is 1.26 µM (inactive); with EKVX, 1.71 µM (inactive); in the test on UO-31 it was 1.5 µM (inactive); in the test with SN12C it was 2.36 µM (inactive); with NCI-H522, 0.598 µM (active); in the test on SF-295, 1.53 µM (inactive). Moreover, the GI50 is 0.407 µM (active) with HCT-116 and 0.233 µM (active) with HCC 2998.
For `CCCOC(=O)CNC(=O)OC(C)(C)C`, the GI50 in the test with NCI-H460, in the test on SK-OV-3, in the test with SF-268, in the test with U-251, in the test on UACC-62 and with UACC-257 was > 100 µM (inactive) throughout. Also, the GI50 in the test on HOP-62, with A549, in the test on OVCAR-4, in the test with NCI-H23, in the test with OVCAR-5 and in the test on KM12 was > 100 µM (inactive) in each case. The GI50 in the test with EKVX, with UO-31, with NCI-H522, with SF-295, with HCT-116 and with HCC 2998 was > 100 µM (inactive) in each case.
Take `O=C1OC(c2ccccc2)=N/C1=C\c1cccnc1`: the GI50 in the test with NCI-H460 was > 100 µM (inactive); in the test with MOLT-4, 2.84 µM (inactive); in the test on SK-OV-3 it was > 100 µM (inactive); with SF-268, > 100 µM (inactive); in the test with U-251, > 100 µM (inactive); in the test on UACC-62, > 100 µM (inactive). Besides, the GI50 in the test with UACC-257, in the test on HOP-62, in the test with A549, in the test on OVCAR-4, in the test on NCI-H23 and in the test with OVCAR-5 was > 100 µM (inactive) each time. The GI50 in the test with KM12, with EKVX, in the test on UO-31, with NCI-H522, in the test with SF-295 and with HCC 2998 was > 100 µM (inactive) in each case.
In the case of `CCN(CC)C(=O)C(C)n1cc(C)c(=O)[nH]c1=O` (stereo not given), the GI50 with NCI-H460, in the test on MOLT-4, in the test on SF-268, with U-251, in the test with UACC-62 and in the test on HOP-62 was > 100 µM (inactive) in each case. Moreover, the GI50 with A549, in the test with OVCAR-4, in the test with NCI-H23, in the test with OVCAR-5, with KM12 and in the test with EKVX was > 100 µM (inactive) in each case. In addition, the GI50 with UO-31, in the test on SN12C, in the test with NCI-H522, in the test with SF-295, in the test with HCT-116 and in the test with HCC 2998 was > 100 µM (inactive) throughout.
